Assay results: patent publication US20220288052A1, “COMPOUND FOR COMBINATION TREATMENT” (priority 2019, published 2022)
pKi: −log10 of the molar value. Read-outs that look alike come from different tables or passages of the source.

Experiments:
NMRI mice = experiment: Locomotor activity (mLA); assay type: in vivo, mouse
Protocol: FIG. 8: The effects of compound (I) on locomotor activity. Compound (I) p.o. in NMRI mice. TSE Motility.
Compound (I) was tested in a classical test often used to measure the ability of a compound to block the reuptake of 5-HT in vivo: nialamide-induced 5-HT syndrome (m5-HT). In addition, compound (I) was tested in a locomotor activity paradigm (mLA) as a measure of its ability to block the reuptake of DA and therefore induce motility. It is generally accepted that >60% DA transporter blockade is needed to induce increased motility in this test.

[1] = 5 days p.o. tolerated dose study in female rats (non-GLP); assay type: in vivo, rat; conditions: p.o. 5 days, 30, 60, 90 mg/kg
plasma protein = experiment: Plasma protein binding by equilibrium dialysis, rat; assay type: in vitro ADME
Protocol: The plasma protein binding was tested in rat, mouse, dog and human plasma by equilibrium dialysis. The plasma protein binding of this compound is remarkably low (Table 24).

[2] = Metabolic stability in liver microsomes, human; assay type: in vitro ADME
Protocol: (§1) The metabolic stability of compound (I) was tested in liver microsomes from all in house available species at 1 and 5 μM. One metabolite of 16 mass units higher than parent, was found in all incubations, except with human liver microsomes.

5-HT transporter = 5-HT transporter (Rattus norvegicus, UniProt P31652); experiment: ^3H-Citalopram binding, rat
From the text: Compound (I) has been characterized as a monoamine reuptake inhibitor, based on the profile in a series of functional assays (Table 2).

[3] = Metabolic stability in liver microsomes, monkey; assay type: in vitro ADME
Protocol: as §1

[4] = Tissue distribution after single dose, rat; assay type: in vivo; conditions: sc; for AUC(0-t): male, Wistar, rat 5 mg/kg s.c., read-out: AUC(0-24 h); for half-life: rat, male Wistar rats 5 mg/kg s.c., read-out: T½ (converted)
Protocol: Compound (I) was dosed to male Wistar rats 5 mg/kg s.c. Plasma was taken 0.5, 1, 2, 4, 6 and 24 post dose. Brain, liver and lung were taken 1, 4 and 24 hours post dose.
The plasma profile was again essentially the same as for the single dose study showing the same T½ of 0.8 h. AUC and T½ were calculated for plasma and organs, even though the data are very sparse for the organs.

[5] = Bioavailability study in dog; assay type: in vivo; conditions: for half-life / AUC(0-inf) / Cmax / Tmax / bioavailability / Vd / clearance: plasma; for bioavailability: 2.5 mg/kg p.o. vs 0.5 mg/kg i.v.
Protocol: A bioavailability study was also conducted in dogs. […] The i.v. dose, which was given 7 days later, was chosen as 0.5 mg/kg in order to prevent observable CNS effects. The difference between the p.o. and the i.v. dose might overestimate the bioavailability to a certain extent. […] T½ is in the same range in the two dogs and after both p.o. and i.v. administration (1.4-1.7 h).

[6] = Metabolic stability in liver microsomes, mouse; assay type: in vitro ADME
Protocol: as §1

[7] = Metabolic stability in liver microsomes, minipig; assay type: in vitro ADME
Protocol: as §1

[8] = po, Female beagle dog, 2.5 mg/kg p.o.
[9] = po, Male beagle dog, 2.5 mg/kg p.o.

5-HT transporter, sequence (P31652 whole entry): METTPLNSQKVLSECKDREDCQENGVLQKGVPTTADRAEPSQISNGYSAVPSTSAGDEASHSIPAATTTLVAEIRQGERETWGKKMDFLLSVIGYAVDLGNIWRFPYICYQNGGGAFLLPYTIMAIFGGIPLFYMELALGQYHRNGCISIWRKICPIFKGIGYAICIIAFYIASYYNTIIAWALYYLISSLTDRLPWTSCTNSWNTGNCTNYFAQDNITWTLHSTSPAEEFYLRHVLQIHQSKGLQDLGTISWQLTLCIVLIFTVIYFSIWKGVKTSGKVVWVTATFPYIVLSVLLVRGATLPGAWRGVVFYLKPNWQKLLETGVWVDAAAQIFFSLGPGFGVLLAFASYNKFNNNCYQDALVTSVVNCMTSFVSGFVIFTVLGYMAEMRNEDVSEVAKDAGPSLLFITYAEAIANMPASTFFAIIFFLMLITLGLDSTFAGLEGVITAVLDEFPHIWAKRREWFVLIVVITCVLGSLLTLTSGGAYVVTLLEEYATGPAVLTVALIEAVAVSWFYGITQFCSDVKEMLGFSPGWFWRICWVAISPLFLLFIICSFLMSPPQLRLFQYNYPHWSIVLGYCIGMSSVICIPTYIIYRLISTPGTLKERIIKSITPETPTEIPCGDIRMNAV

O=c1ccc2ccc(O[C@@H]3C[C@H]4CC[C@@H](C3)N4)cc2o1 [Compound (I), exo-7-(8-aza-bicyclo[3.2.1]oct-3-yloxy)-chromen-2-one]
MED (NMRI mice; mLA, 1, 3, 10 mg/kg p.o. −60 min + SCH23390 0.00375 mg/kg s.c. −60 min): 10 mg/kg
MED (NMRI mice; mLA, p.o. 0 min): 10 mg/kg
Activity [1]: increased activity
Body weight gain [1]: no changes in body weight gain
fraction unbound at 81 ng/ml (plasma protein; 81 ng/ml): 0.566
fraction unbound at 271 ng/ml (plasma protein; 271 ng/ml): 0.65
fraction unbound at 813 ng/ml (plasma protein; 813 ng/ml): 0.582
fraction unbound at 2710 ng/ml (plasma protein; 2710 ng/ml): 0.635
Metabolite (mass units higher than parent) [2]: None
Stability at 1 μM [2]: 94%
Stability at 5 μM [2]: 93%
pKi (5-HT transporter): 9.55
Stability at 1 μM [3]: 79%
Stability at 5 μM [3]: 88%
AUC(0-t) ([4]; Brain): 3190 ng·h/mL
AUC(0-t) ([4]; Liver): 493 ng·h/mL
AUC(0-t) ([4]; Lung): 17600 ng·h/mL
AUC(0-t) ([4]; Plasma): 805 ng·h/mL
half-life ([4]; Brain): 216 min
half-life ([4]; Lung): 156 min
half-life ([4]; Plasma): 48 min
half-life ([5]; both sexes, beagle, dog, other: p.o. and i.v., the two dogs, after both p.o. and i.v. administration, read-out: T½): 84 to 102 min
CNS effects ([5]; dogs, after 2.5 mg/kg p.o.): some CNS effects were observed
AUC(0-inf) ([5]; iv, Female beagle dog, 0.5 mg/kg i.v., read-out: AUC(0-∞) i.v.): 194 ng·h/mL
half-life ([5]; iv, Female beagle dog, 0.5 mg/kg i.v., read-out: T½ i.v. (converted)): 84 min
AUC(0-inf) ([5]; iv, Male beagle dog, 0.5 mg/kg i.v., read-out: AUC(0-∞) i.v.): 343 ng·h/mL
half-life ([5]; iv, Male beagle dog, 0.5 mg/kg i.v., read-out: T½ i.v. (converted)): 96 min
Cmax [5, 8]: 339 ng/mL
Tmax [5, 8]: 30 min
bioavailability ([5]; po, Female beagle dog): 114%
AUC(0-inf) ([5]; po, Female beagle dog, 2.5 mg/kg p.o., read-out: AUC(0-∞) p.o.): 1110 ng·h/mL
half-life ([5]; po, Female beagle dog, 2.5 mg/kg p.o., read-out: T½ p.o. (converted)): 96 min
Cmax [5, 9]: 418 ng/mL
Tmax [5, 9]: 30 min
bioavailability ([5]; po, Male beagle dog): 84%
AUC(0-inf) ([5]; po, Male beagle dog, 2.5 mg/kg p.o., read-out: AUC(0-∞) p.o.): 1440 ng·h/mL
half-life ([5]; po, Male beagle dog, 2.5 mg/kg p.o., read-out: T½ p.o. (converted)): 102 min
Vd ([5]; Female beagle dog): 5 L/kg
clearance ([5]; Female beagle dog): 43.3 mL/min/kg
Vd ([5]; Male beagle dog): 3.4 L/kg
clearance ([5]; Male beagle dog): 25 mL/min/kg
Stability at 1 μM [6]: 89%
Stability at 5 μM [6]: 100%
Stability at 1 μM [7]: 88%
Stability at 5 μM [7]: 98%
